According to ChEMBL document CHEMBL1201862, “PubChem BioAssay data set” (2004):
Each block holds one molecule with its values, some of them ahead of it. Active and inactive are the calls of the source.

What was measured:
[1] = biological target: Cytochrome P450 2D6 (Homo sapiens, UniProt P10635); assay: qHTS Assay for Inhibitors and Substrates of Cytochrome P450 2D6. [Related pubchem assays: 410 ]; format: ADME; conditions: read-out: Potency
[2] = biological target: Cytochrome P450 2C9 (Homo sapiens, UniProt P11712); conditions: Potency
Sequence of Cytochrome P450 2C9 (P11712 whole entry): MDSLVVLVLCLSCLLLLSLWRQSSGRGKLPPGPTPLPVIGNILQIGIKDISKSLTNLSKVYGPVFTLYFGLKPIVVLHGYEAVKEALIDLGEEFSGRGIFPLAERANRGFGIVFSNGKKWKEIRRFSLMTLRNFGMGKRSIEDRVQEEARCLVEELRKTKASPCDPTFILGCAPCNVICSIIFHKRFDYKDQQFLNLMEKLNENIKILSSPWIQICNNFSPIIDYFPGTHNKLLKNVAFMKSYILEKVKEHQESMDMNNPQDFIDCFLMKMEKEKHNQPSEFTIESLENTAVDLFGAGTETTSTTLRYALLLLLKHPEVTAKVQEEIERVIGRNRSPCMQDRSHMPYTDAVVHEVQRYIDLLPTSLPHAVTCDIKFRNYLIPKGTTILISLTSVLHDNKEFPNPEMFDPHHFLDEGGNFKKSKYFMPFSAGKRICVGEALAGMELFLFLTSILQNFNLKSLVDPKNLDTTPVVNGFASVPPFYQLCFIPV

[3] = viability of HCT116 lacking mutant beta-catenin – cell-based, human colon tumor, dose response (AID 1045); format: functional;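 further: HCT116 colon tumor cells with beta catenin knocked out; cells exposed to compound for 60 hours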
[4] = biological target: X-box-binding protein 1 (Homo sapiens, UniProt P17861); format: functional, Cricetulus griseus;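 further: confirmatory dose-response counter-screen serving a CHOP assay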
[5] = viability of PTEN-deleted HCT116 cells – cell-based, HCT116 PTEN knockout, dose response (AID 1047); format: functional;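 further: HCT116 colon tumor cells with PTEN knocked out; cells exposed to compound for 60 hours before readout; potency for loss of cell viability measured by luminescence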
[6] = biological target: Caspase-7 (Homo sapiens, UniProt P55210); assay: potency of procaspase-7 enzyme activation – biochemical, absorbance, human, dual procaspase-3/-7 activator project, dose response (AID 504330)
[7] = viability of uninfected HEp-2 cells – cell-based, HTS, cytotoxicity control for RSV inhibitor project, dose response (AID 2410); format: functional; conditions: human respiratory syncytial virus
[8] = biological target: T1, Caspase-3 (Homo sapiens, UniProt P42574); assay: activators of human procaspase-3 D3A mutant – biochemical, absorbance, PC-3 D3A mutant, counter-screen for dual procaspase-3/7 activator project, dose response (AID 504328)
T1 sequence (P42574 whole entry): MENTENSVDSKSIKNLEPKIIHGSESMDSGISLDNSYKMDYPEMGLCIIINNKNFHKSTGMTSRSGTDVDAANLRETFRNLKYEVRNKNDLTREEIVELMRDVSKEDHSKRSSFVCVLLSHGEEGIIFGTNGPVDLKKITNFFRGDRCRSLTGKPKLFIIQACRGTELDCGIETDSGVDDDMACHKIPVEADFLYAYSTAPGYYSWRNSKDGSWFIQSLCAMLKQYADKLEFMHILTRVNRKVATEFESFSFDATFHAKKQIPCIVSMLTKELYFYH

[9] = tested on: H9c2; assay: cells; format: functional, cell-based; conditions: Rattus norvegicus, H9c2, Myocardium;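 further: confirmatory concentration-response retest of ultra-high-throughput screening hits for modulation of myocardial damage; cell death induced by hydrogen peroxide oxidative stress; compound pretreatment for 60 min then peroxide exposure for 2 h; potency is for protecting the cells against peroxide damage rather than for killing them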
[10] = biological target: T2, Sentrin-specific protease 1 (Homo sapiens, UniProt Q9P0U3); assay: Dose response confirmation of small molecule inhibitors of the catalytic domain of the SUMO protease, SENP1 in a FRET assay.; format: functional; conditions: read-out: IC50_Mean
T2 sequence (Q9P0U3 whole entry): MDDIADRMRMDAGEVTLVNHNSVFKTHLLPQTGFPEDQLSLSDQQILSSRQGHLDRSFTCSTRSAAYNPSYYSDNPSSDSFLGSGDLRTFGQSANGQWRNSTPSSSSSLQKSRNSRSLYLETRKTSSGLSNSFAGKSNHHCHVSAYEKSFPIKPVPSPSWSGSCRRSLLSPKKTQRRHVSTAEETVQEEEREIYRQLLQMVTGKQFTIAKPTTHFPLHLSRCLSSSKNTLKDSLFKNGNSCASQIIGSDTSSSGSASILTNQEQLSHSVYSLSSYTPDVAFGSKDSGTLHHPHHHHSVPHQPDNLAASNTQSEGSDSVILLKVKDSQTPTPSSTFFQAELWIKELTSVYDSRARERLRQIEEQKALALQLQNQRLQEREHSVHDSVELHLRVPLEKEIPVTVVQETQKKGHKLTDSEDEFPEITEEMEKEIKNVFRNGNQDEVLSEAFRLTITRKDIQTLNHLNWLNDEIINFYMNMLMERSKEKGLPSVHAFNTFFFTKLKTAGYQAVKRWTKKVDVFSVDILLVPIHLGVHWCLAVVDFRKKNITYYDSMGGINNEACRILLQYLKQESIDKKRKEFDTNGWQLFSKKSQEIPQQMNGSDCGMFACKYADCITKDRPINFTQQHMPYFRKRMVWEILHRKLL

[11] = biological target: Protein Rev (Human immunodeficiency virus type 1 group M subtype B (isolate HXB2)(HIV-1), UniProt P04618); assay: blockers of HIV Rev/RRE RNA complex – biochemical, fluorescence polarization, HIV-1, dose response (AID 434976); parameters: species or system Human immunodeficiency virus 1
[12] = biological target: Female germline-specific tumor suppressor gld-1 (Caenorhabditis elegans, UniProt Q17339); assay: blockers of GLD-1/TGE RNA complex formation – biochemical, fluorescence polarization, C. elegans, dose response (AID 2802);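 further: fluorescence polarization of labeled TGE RNA bound by purified gld-1 protein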
[13] = biological target: T2, Sentrin-specific protease 1; assay: SENP1 catalytic domain blockers, concentration series – biochemical, kinetic FRET, dose response (AID 651697); format: functional; conditions: read-out: IC50_Mean
[14] = biological target: Estrogen receptor beta (Homo sapiens, UniProt Q92731);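 further: recombinant ER-beta bound to coactivator SRC1 peptide in presence of estradiol agonist; inhibitors block coactivator peptide binding and lower the FRET signal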
[15] = biological target: Glyceraldehyde-3-phosphate dehydrogenase (Homo sapiens, UniProt P04406)
Sequence of Glyceraldehyde-3-phosphate dehydrogenase (P04406 whole entry): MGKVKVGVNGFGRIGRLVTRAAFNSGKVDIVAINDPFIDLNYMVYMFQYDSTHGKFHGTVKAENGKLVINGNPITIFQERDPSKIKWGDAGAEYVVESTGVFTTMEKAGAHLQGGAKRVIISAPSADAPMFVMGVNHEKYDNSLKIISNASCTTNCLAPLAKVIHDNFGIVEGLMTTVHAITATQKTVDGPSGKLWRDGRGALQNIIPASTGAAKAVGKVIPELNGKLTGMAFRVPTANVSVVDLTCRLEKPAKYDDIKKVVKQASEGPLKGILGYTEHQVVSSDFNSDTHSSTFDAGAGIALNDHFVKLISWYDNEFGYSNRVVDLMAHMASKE

[16] = biological target: T3, Tyrosine-protein phosphatase non-receptor type 7 (Homo sapiens, UniProt P35236); format: functional
T3 sequence (P35236 whole entry): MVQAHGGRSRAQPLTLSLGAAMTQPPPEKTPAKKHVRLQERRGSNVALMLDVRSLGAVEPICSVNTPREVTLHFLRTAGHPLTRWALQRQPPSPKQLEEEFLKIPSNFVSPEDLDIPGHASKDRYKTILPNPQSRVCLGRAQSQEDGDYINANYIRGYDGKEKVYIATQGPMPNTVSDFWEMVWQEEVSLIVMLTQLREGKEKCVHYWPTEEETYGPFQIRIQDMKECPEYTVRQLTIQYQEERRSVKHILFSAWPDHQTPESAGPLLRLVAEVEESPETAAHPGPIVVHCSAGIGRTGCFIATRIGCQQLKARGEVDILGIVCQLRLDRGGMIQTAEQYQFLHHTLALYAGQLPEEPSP

[17] = biological target: T4, Dual specificity protein phosphatase 6 (Rattus norvegicus, UniProt Q64346); format: functional
T4 sequence (Q64346 whole entry): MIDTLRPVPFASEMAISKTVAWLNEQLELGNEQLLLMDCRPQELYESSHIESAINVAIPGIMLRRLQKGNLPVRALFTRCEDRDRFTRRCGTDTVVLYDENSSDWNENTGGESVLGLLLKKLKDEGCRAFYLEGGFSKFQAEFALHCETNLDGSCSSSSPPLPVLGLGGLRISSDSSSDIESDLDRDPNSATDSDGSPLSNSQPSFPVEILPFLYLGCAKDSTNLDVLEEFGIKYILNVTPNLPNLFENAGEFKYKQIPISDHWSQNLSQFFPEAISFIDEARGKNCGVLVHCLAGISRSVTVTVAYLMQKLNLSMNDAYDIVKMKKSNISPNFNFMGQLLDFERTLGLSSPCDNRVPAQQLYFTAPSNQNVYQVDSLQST

[18] = biological target: T4, Dual specificity protein phosphatase 6
[19] = biological target: Neuropeptides B/W receptor type 1 (Homo sapiens, UniProt P48145); assay: Fluorescence-based dose response cell-based high throughput screening assay to identify antagonists of the G-protein coupled receptor 7 (GPR7). [Related pubchem assays: 1952 (Screening assay (GPR7 antagonists).), 1880 (Summary AID.)]; format: functional
Sequence of Neuropeptides B/W receptor type 1 (P48145 whole entry): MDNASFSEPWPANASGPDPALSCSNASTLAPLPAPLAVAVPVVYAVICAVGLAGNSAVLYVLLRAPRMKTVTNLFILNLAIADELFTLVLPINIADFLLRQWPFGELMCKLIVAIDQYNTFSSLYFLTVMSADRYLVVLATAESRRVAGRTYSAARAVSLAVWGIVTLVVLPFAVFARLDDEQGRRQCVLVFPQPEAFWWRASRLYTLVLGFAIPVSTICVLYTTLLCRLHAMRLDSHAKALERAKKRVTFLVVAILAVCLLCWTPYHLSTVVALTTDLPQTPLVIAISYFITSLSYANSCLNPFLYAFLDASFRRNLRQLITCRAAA

[20] = biological target: Melanin-concentrating hormone receptor 1 (Homo sapiens, UniProt Q99705); assay: Fluorescence-based counterscreen for antagonists of the G-protein coupled receptor 7 (GPR7): cell-based high throughput dose response assay to identify antagonists of the melanin-concentrating hormone receptor 1 (MCHR1).; format: functional
[21] = biological target: Voltage-gated N-type calcium channel alpha-1B subunit/Amyloid beta A4 precursor protein-binding family A member 1 (Homo sapiens, UniProt Q00975+Q02410); assay: disruptors of Mint-PDZ/N-type channel peptide interaction – biochemical, HTRF, set 2, SAR follow-up (AID 434980); format: functional
Sequence of Voltage-gated N-type calcium channel alpha-1B subunit/Amyloid beta A4 precursor protein-binding family A member 1 (Q00975 whole entry): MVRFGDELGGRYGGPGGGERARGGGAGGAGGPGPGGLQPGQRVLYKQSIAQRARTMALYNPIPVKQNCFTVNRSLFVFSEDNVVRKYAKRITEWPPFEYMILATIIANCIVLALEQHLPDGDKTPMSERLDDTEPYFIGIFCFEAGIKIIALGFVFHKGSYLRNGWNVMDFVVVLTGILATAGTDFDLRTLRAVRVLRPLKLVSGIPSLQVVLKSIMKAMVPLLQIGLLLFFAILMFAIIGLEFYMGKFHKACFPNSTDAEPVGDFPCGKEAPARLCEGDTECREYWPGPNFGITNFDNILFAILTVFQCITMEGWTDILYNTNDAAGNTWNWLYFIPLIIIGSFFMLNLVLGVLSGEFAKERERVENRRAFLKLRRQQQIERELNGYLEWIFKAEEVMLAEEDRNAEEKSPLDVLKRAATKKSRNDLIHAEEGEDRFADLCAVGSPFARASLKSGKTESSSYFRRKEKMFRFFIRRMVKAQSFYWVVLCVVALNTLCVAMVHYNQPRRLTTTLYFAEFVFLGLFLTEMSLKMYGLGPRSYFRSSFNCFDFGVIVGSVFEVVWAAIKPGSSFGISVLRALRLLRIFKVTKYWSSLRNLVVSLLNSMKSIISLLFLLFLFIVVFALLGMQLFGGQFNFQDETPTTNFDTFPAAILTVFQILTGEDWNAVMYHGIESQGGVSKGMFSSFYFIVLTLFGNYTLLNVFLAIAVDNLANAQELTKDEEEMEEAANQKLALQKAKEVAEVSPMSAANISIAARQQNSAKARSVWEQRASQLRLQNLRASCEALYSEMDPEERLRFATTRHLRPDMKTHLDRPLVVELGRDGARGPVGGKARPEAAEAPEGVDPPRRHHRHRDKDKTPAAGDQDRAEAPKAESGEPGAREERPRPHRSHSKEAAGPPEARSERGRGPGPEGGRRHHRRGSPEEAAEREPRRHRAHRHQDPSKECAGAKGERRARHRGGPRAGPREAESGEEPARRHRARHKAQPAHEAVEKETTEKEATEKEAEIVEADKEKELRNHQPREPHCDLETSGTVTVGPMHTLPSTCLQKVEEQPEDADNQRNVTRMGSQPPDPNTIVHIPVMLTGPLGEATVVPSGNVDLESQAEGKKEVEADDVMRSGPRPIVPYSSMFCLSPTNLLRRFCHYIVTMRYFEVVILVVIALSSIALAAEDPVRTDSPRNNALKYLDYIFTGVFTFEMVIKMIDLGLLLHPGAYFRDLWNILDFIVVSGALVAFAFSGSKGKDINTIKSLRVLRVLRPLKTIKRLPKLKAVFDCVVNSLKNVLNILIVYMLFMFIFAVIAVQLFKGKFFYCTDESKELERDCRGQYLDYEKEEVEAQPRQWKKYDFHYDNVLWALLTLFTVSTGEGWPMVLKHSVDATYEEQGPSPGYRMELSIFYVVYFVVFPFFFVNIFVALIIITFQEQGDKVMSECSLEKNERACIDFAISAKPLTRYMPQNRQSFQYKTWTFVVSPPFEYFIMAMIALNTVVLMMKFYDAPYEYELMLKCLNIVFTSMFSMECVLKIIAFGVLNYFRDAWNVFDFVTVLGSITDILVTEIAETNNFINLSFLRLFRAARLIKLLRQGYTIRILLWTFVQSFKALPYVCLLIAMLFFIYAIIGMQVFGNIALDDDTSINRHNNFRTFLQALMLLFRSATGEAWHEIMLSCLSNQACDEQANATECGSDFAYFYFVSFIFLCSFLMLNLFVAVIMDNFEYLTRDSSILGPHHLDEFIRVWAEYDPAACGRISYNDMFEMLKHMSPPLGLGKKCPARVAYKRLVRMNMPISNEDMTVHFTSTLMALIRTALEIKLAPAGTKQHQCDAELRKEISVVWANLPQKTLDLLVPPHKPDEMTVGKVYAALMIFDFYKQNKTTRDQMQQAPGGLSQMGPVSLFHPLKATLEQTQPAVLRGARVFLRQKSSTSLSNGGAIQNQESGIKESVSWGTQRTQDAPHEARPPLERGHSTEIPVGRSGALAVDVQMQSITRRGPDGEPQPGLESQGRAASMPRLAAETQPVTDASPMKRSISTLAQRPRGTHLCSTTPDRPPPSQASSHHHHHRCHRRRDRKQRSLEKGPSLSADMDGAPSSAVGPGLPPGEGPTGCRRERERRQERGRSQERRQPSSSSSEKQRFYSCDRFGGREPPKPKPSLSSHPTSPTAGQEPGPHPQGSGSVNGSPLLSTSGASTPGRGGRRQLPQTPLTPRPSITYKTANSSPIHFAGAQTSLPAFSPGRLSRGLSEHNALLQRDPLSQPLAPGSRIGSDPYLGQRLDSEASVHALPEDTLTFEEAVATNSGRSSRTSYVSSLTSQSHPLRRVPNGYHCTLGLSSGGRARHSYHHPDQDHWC
Sequence of Voltage-gated N-type calcium channel alpha-1B subunit/Amyloid beta A4 precursor protein-binding family A member 1 (Q02410 whole entry): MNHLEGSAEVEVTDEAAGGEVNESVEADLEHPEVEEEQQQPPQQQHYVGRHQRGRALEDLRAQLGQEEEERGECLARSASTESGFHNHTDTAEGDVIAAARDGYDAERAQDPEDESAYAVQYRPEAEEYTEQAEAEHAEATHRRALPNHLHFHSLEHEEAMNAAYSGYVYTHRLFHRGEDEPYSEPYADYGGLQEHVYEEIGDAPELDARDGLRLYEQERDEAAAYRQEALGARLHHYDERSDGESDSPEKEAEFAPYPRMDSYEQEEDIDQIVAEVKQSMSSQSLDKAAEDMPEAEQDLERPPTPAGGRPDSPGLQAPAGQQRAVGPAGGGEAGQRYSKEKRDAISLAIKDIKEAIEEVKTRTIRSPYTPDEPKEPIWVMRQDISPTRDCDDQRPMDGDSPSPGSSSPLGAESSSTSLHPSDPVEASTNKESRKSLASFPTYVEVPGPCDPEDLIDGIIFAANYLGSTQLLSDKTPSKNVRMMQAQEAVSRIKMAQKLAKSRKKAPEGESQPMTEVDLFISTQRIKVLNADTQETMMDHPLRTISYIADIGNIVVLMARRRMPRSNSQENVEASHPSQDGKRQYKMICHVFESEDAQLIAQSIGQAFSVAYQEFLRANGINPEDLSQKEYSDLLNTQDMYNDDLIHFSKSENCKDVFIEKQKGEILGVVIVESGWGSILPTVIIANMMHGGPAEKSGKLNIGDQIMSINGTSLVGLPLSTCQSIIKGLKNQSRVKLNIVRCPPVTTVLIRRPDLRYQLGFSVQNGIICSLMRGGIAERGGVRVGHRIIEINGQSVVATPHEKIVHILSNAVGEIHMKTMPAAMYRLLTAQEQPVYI

[22] = fluconazole-exposed Candida albicans growth modulators – fluorescence, retest, confirmation (AID 2467); format: functional, cell-based
[23] = biological target: Polyadenylate-binding protein 1 (Homo sapiens, UniProt P11940); assay: blockers of PABP interaction with poly(A) – biochemical, fluorescence polarization, […] (AID 2014)
[24] = biological target: Genome polyprotein (dengue virus type 2, UniProt P29990); assay: flavivirus cap methylation enzyme inhibition – biochemical, confirmation dose response, primary screen (AID 588689); format: functional
[25] = biological target: Protein Tat (Human immunodeficiency virus type 1 group M subtype B (isolate HXB2)(HIV-1), UniProt P04608); format: functional;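 further: tat binding to TAR RNA read out by fluorescence polarization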
[26] = biological target: Eukaryotic translation initiation factor 4H (Homo sapiens, UniProt Q15056); assay: eIF4H binding inhibition – biochemical, uHTS, fluorescence polarization, translation initiation inhibitor project, primary screen (AID 2012)
[27] = NIH-3T3 fibroblast cytotoxicity, dose response, cytotoxicity control, cell-based, fluorescence, Alamar Blue, secondary assay (AID 2327); format: functional;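 further: NIH-3T3 mouse fibroblasts cultured with fluconazole at 8 µg/mL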

Sequence of Cytochrome P450 2D6 (P10635 whole entry): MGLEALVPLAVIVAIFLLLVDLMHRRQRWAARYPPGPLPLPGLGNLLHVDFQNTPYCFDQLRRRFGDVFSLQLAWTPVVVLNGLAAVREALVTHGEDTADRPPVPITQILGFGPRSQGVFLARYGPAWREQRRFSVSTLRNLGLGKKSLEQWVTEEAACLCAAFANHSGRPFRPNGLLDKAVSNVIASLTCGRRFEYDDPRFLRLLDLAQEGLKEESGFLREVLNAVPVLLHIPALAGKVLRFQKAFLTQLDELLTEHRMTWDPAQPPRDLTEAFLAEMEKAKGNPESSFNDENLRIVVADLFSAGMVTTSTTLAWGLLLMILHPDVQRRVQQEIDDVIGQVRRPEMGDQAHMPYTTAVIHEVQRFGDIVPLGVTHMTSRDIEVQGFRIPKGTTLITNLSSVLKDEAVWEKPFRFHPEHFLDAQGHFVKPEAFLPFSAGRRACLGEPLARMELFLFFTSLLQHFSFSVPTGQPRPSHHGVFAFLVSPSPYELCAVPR

- AC50 [1]: 39.8 µM (inconclusive)
- AC50 [2]: 12.6 µM (inconclusive)
Compound: NCCC[C@@H](CC(=O)N[C@@H]1CCCC[C@H]1C(=O)N[C@H](CC(=O)N[C@@H](CCC(=O)O)CC(=O)O)Cc1c[nH]c2ccccc12)NC(=O)C[C@H](CO)NC(=O)[C@@H]1CNCC[C@H]1N

Compound: COc1ccc(-c2[nH]ncc2/C=C(/C#N)C(=O)NC2CCCCCC2)cc1
- EC50 [3]: 11.3 µM (active)
- Absolute IC50 (XBP1) [4]: 10 µM
- EC50 [5]: 12.6 µM (active)

- EC50 [6]: > 85.3 µM (inactive)
- EC50 [8]: > 85.3 µM (inactive)
Compound: COc1cc2c(cc1OC)C(C)N(C(=O)c1cc3c(s1)-c1ccccc1OC3)CC2 (stereo not drawn)
- CC50 [7]: 27.4 µM (active)

Compound: COc1ccc(Nc2nnc(SCc3cc(=O)n4ccsc4n3)s2)cc1
- IC50 [9]: 7.45 µM (active)
- IC50 [10]: 16.3 µM (active)
- IC50 [11]: > 75.4 µM (not active)
- IC50 [12]: 45.5 µM (inactive)
- IC50 [13]: 26.2 µM (inactive)
- CC50 [7]: 36.5 µM (active)
- IC50 [14]: > 50 µM (not active)

- IC50 [15]: > 100 µM (not active)
- IC50 [16]: > 100 µM (not active)
- IC50 [17]: > 100 µM (inactive)
- IC50 [18]: > 100 µM (inactive)
Compound: O=C(O)C1Nc2cc(C(F)(F)F)ccc2S(=O)(=O)N1 (stereo not drawn)

- IC50 [19]: > 43.8 µM (not active)
- IC50 [20]: > 43.8 µM (not active)
Compound: Nc1c(C(=O)NCc2ccc3c(c2)OCO3)nnn1Cc1ccc(Br)cc1

- IC50 [21]: > 56.8 µM (inactive)
Compound: O=C(NCCCO)c1cc(-c2ccco2)nc2ccccc12

Compound: Oc1ccc(/C=N/NP(=S)(c2ccccc2)c2ccccc2)c(O)c1O
- EC50 [22]: > 38 µM (not active)
- IC50 [23]: > 100 µM (inactive)
- IC50 [24]: > 100 µM (active)
- IC50 [25]: 25.3 µM (inconclusive)
- IC50 [26]: 65.3 µM (active)
- EC50 [27]: > 150 µM (inactive)
